Data taken from patent US20150038430A1, “THERAPEUTIC PEPTIDOMIMETIC MACROCYCLES” (AILERON Therapeutics, Inc., priority 2008, published 2015).
Numbered stars: 1 amine (or outer) side, 2 acyl side, 3 side chain; on linkers, the order of the positions; unused ones are H or OH. Bridge positions count the residues as written; N and C are the ends. Square brackets hold non-standard residues; d marks the D form. Peptide text beside a SMILES is read from it. * marks the point of attachment. ξ: configuration not given here. ξαMeNle(6-ylidene) = CC(CCCC=[*:3])(N[*:1])C(=O)[*:2]; Nle = CCCC[C@H](N)C(=O)O; Aib = CC(C)(N)C(=O)O; Propionyl = CCC(=O)*

Legend:
A375 = assay type: cell-based, human; details: 24 h
Description: (§1) Cell viability assays shown in FIGS. 34-52 were performed according to a similar protocol. Cells were split at optimal cell density a day prior to the initiation of the study. The next day, cells were washed twice in serum-free Opti-MEM media and 4000 cells/well were added to each well in a final volume of […] Opti-MEM. For serum-free experiments, macrocycles were diluted from 2 mM stocks (100% DMSO) in sterile water to prepare 400 μM working solutions. A 40 μM solution was then generated by ten-fold dilution in assay buffer. The macrocycle and controls were then serially diluted two-fold in assay buffer in dosing plates to provide concentrations between 1.2 and 40 μM, respectively. For experiments in 2% human serum, macrocycles were diluted from 10 mM stocks (100% DMSO) in sterile water to prepare 1 mM working solutions. A 100 μM solution was generated by ten-fold dilution in assay buffer. The macrocycles and controls were then serially diluted two-fold in assay buffer in dosing plates to provide concentrations between 3 and 100 μM, respectively. 50 μl of each dilution was then added to the appropriate wells of the test plate to achieve final concentrations of the macrocycle between 0.6 to 20 μM (for serum free experiment) or 1.5 to 50 μM (for 2% serum experiment), respectively. Controls included wells without macrocycles containing the same concentration of DMSO as the macrocycle-containing wells, wells containing 0.1% Triton X-100, and wells containing no cells. Plates were incubated for 24 hours at 37° C. in a humidified 5% CO2 atmosphere. At the end of a 24 hr incubation period, a CellTiter-Glo Luminescent Cell Viability Assay was performed according to manufacturer's instructions (Promega, catalog #G7571) and the luminescence was measured using a BIO-TEK synergy HT Plate reader. Values were plotted as percent viable, i.e. as a percentage of the negative control value (derived from cells exposed to DMSO only). All assays were performed in duplicate.
(§2) The following tables summarize the EC50 values (μM) observed with peptidomimetic macrocycles of the invention in various cell lines: […]

DHL-6 = assay type: cell-based, human; details: 24 h
Description: as §1, §2

Jurkat = assay type: cell-based, human; details: 24 h
Description: as §1, §2

MDA-MB231-Met = assay type: cell-based, human; details: 24 h
Description: as §1, §2

MM1S = assay type: cell-based, human; details: 24 h
Description: as §1, §2

Molt-4 = assay type: cell-based, human; details: 24 h
Description: as §1, §2

NCI-H82 (SCLC-MCL1+) = assay type: cell-based, human; details: 24 h
Description: as §1, §2

OVCAR8 = assay type: cell-based, human; details: 24 h
Description: as §1, §2

PC3 = assay type: cell-based, human; details: 24 h
Description: as §1, §2

RS4;11 = assay type: cell-based, human; details: 24 h
Description: as §1, §2

Raji = assay type: cell-based, human; details: 24 h
Description: as §1, §2

SEMK2 = assay type: cell-based, human; details: 24 h
Description: as §1, §2

Bcl-xL = Bcl-xL (Homo sapiens, UniProt Q07817); assay: Kd, μM | Bcl-xL
From the text: (§3) Table printed on a drawing sheet, Figure 27
Head of the field: Kd, μM | Bcl-xL
Where the first naming reader finds the target: head: Kd, μM | Bcl-xL

Mcl-1 = assay: Kd, μM | Mcl-1
From the text: as §3
Head of the field: Kd, μM | Mcl-1
First copying reader's note: The last row (ABT-737) is a small-molecule comparator; the three plots above the table are not copied.
Where the first naming reader finds the target: head: Kd, μM | Mcl-1

Chain of Bcl-xL (Q07817 whole entry, looked up): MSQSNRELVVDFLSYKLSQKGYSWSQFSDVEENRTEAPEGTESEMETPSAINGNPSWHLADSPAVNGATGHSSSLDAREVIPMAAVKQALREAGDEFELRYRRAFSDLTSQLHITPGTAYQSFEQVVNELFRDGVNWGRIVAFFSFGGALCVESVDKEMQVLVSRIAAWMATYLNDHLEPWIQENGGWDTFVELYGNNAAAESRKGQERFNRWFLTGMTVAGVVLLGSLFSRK

EC50 (A375) [nM]	EC50 (DHL-6) [nM]	EC50 (Jurkat) [nM]	EC50 (MDA-MB231-Met) [nM]	EC50 (MM1S) [nM]	EC50 (Molt-4) [nM]	EC50 (NCI-H82 (SCLC-MCL1+)) [nM]	EC50 (OVCAR8) [nM]	EC50 (PC3) [nM]	EC50 (RS4;11) [nM]	EC50 (Raji) [nM]	EC50 (SEMK2) [nM]	Kd (Bcl-xL) [µM]	Kd (Mcl-1) [µM]	SMILES
4100	2700	1900	2900	5500	1000	4200	7100	5700	4300	5700	8100	–	–	CCC(=O)N[C@@H](CCCNC(=N)N)C(=O)N[C@@H](CC(N)=O)C(=O)N[C@H](C(=O)N[C@@H](C)C(=O)N[C@@H](CCCNC(=N)N)C(=O)N[C@@H](Cc1c[nH]cn1)C(=O)N[C@@H](CC(C)C)C(=O)N[C@@H](C)C(=O)NC1(C)CCCC=CCCCC(C)(C(=O)N[C@@H](Cc2ccccc2)C(=O)N[C@@H](C)C(=O)N[C@@H](CCCNC(=N)N)C(=O)N[C@@H](CO)C(=O)N[C@H](C(N)=O)[C@@H](C)CC)NC(=O)[C@H](CC(=O)O)NC(=O)C(C)(C)NC(=O)[C@H](C(C)C)NC1=O)[C@@H](C)CC (some centres unmarked) [SP-9] (Propionyl-RNIARHLA[ξαMeNle(6-ylidene)]V[Aib]D[ξαMeNle(6-ylidene)]FARSI-NH2; staple 9-13)
5200	1900	1900	3100	2500	1900	5700	8100	6000	3500	5000	8200	–	–	CCCC[C@H](NC(=O)C1(C)CCCC=CCCCC(C)(NC(=O)[C@H](C)NC(=O)[C@H](CC(C)C)NC(=O)[C@H](Cc2c[nH]cn2)NC(=O)[C@H](CCCNC(=N)N)NC(=O)[C@H](C)NC(=O)[C@@H](NC(=O)[C@H](CC(N)=O)NC(=O)[C@H](CCCNC(=N)N)NC(=O)CC)[C@@H](C)CC)C(=O)N[C@@H](C(C)C)C(=O)NCC(=O)N[C@@H](CC(=O)O)C(=O)N1)C(=O)NC(C)(C)C(=O)N[C@@H](CCCNC(=N)N)C(=O)N[C@@H](CO)C(=O)N[C@H](C(N)=O)[C@@H](C)CC (some centres unmarked) [SP-10] (Propionyl-RNIARHLA[ξαMeNle(6-ylidene)]VGD[ξαMeNle(6-ylidene)][Nle][Aib]RSI-NH2; staple 9-13)
700	–	400	500	–	700	900	700	1900	1710	300	500	0.19	2.5	CCCC[C@@H]1NC(=O)CNC(=O)[C@H]([C@@H](C)CC)NC(=O)C(C)(NC(=O)[C@H](CCCNC(=N)N)NC(=O)[C@H](CC(C)C)NC(=O)[C@H](C)NC(=O)[C@H](CCC(N)=O)NC(=O)[C@H](C)NC(=O)[C@@H](NC(=O)[C@H](Cc2c[nH]c3ccccc23)NC(=O)[C@H](CCCNC(=N)N)NC(C)=O)[C@@H](C)CC)CCCC=CCCCC(C)(C(=O)N[C@@H](Cc2ccccc2)C(=O)N[C@@H](CC(N)=O)C(=O)N[C@@H](C)C(=O)N[C@@H](Cc2ccc(O)cc2)C(=O)N[C@@H](Cc2ccc(O)cc2)C(=O)N[C@@H](C)C(=O)N[C@@H](CCCNC(=N)N)C(=O)N[C@@H](CCCNC(=N)N)C(N)=O)NC1=O (some centres unmarked) [SP-12] (Ac-RWIAQALR[ξαMeNle(6-ylidene)]IG[Nle][ξαMeNle(6-ylidene)]FNAYYARR-NH2; staple 9-13)
800	500	400	900	600	700	–	1800	2100	1700	1000	800	–	–	CC[C@H](C)[C@H](NC(=O)[C@H](Cc1c[nH]c2ccccc12)NC(=O)[C@H](CCCNC(=N)N)NC(C)=O)C(=O)N[C@@H](C)C(=O)N[C@@H](CCC(N)=O)C(=O)N[C@@H](C)C(=O)N[C@@H](CC(C)C)C(=O)N[C@@H](CCCNC(=N)N)C(=O)NC1(C)CCCC=CCCCC(C)(C(=O)N[C@@H](Cc2ccccc2)C(=O)N[C@@H](CC(N)=O)C(=O)N[C@@H](C)C(=O)N[C@@H](Cc2ccccc2)C(=O)N[C@@H](Cc2ccc(O)cc2)C(=O)N[C@@H](C)C(=O)N[C@@H](CCCNC(=N)N)C(=O)N[C@@H](CCCNC(=N)N)C(N)=O)NC(=O)[C@H](CC(=O)O)NC(=O)CNC(=O)[C@H]([C@@H](C)CC)NC1=O (some centres unmarked) [SP-15] (Ac-RWIAQALR[ξαMeNle(6-ylidene)]IGD[ξαMeNle(6-ylidene)]FNAFYARR-NH2; staple 9-13)
1000	500	900	600	700	600	600	900	2000	1000	1800	1000	–	–	CC[C@H](C)[C@H](NC(=O)[C@H](Cc1c[nH]c2ccccc12)NC(=O)[C@H](CCCNC(=N)N)NC(C)=O)C(=O)N[C@@H](C)C(=O)N[C@@H](CCC(N)=O)C(=O)N[C@@H](C)C(=O)N[C@@H](CC(C)C)C(=O)N[C@@H](CCCNC(=N)N)C(=O)NC1(C)CCCC=CCCCC(C)(C(=O)N[C@@H](Cc2ccccc2)C(=O)N[C@@H](CC(N)=O)C(=O)N[C@@H](C)C(=O)N[C@@H](Cc2ccc(O)cc2)C(=O)N[C@@H](Cc2ccc(O)cc2)C(=O)N[C@@H](C)C(=O)N[C@@H](CCCNC(=N)N)C(=O)N[C@@H](CCCNC(=N)N)C(N)=O)NC(=O)[C@H](CC(N)=O)NC(=O)CNC(=O)[C@H]([C@@H](C)CC)NC1=O (some centres unmarked) [SP-23] (Ac-RWIAQALR[ξαMeNle(6-ylidene)]IGN[ξαMeNle(6-ylidene)]FNAYYARR-NH2; staple 9-13)
> 20000	–	> 20000	> 20000	–	–	> 20000	> 20000	> 20000	–	–	–	–	–	CC[C@H](C)[C@H](NC(C)=O)C(=O)N[C@@H](Cc1c[nH]c2ccccc12)C(=O)N[C@H](C(=O)N[C@@H](C)C(=O)N[C@@H](CCC(N)=O)C(=O)N[C@@H](C)C(=O)N[C@@H](C)C(=O)N[C@@H](CCCNC(=N)N)C(=O)NC1(C)CCCC=CCCCC(C)(C(=O)N[C@@H](C)C(=O)N[C@@H](CC(N)=O)C(=O)N[C@@H](C)C(=O)N[C@@H](Cc2ccc(O)cc2)C(=O)N[C@@H](Cc2ccc(O)cc2)C(=O)N[C@@H](C)C(=O)N[C@@H](CCCNC(=N)N)C(=O)N[C@@H](CCCNC(=N)N)C(N)=O)NC(=O)CNC(=O)[C@H]([C@@H](C)CC)NC(=O)[C@H](CC(=O)O)NC1=O)[C@@H](C)CC (some centres unmarked) [SP-24] (Ac-IWIAQAAR[ξαMeNle(6-ylidene)]DIG[ξαMeNle(6-ylidene)]ANAYYARR-NH2; staple 9-13)
1000	600	500	1000	600	900	500	1400	600	1000	1800	900	–	–	CC[C@H](C)[C@H](NC(C)=O)C(=O)N[C@@H](Cc1c[nH]c2ccccc12)C(=O)N[C@H](C(=O)N[C@@H](C)C(=O)N[C@@H](CCC(N)=O)C(=O)N[C@@H](C)C(=O)N[C@@H](CC(C)C)C(=O)N[C@@H](CCCNC(=N)N)C(=O)NC1(C)CCCC=CCCCC(C)(C(=O)N[C@@H](Cc2ccccc2)C(=O)N[C@@H](CC(N)=O)C(=O)N[C@@H](C)C(=O)N[C@@H](Cc2ccc(O)cc2)C(=O)N[C@@H](Cc2ccc(O)cc2)C(=O)N[C@@H](C)C(=O)N[C@@H](CCCNC(=N)N)C(=O)N[C@@H](CCCNC(=N)N)C(N)=O)NC(=O)[C@H](CC(N)=O)NC(=O)CNC(=O)[C@H]([C@@H](C)CC)NC1=O)[C@@H](C)CC (some centres unmarked) [SP-25] (Ac-IWIAQALR[ξαMeNle(6-ylidene)]IGN[ξαMeNle(6-ylidene)]FNAYYARR-NH2; staple 9-13)
